Source: patent publication US12447153B2, “HER2 mutation inhibitors” (Array BioPharma Inc., priority 2021, dated 2025)

Tests used:
EGFR = EGFR (Homo sapiens (Human), UniProt P00533); assay: ErbB Enzyme Assay (HTRF KinEASE-TK), Assay 3; assay type: biochemical; settings: EGFR enzyme
MDR1 (P-gp) = MDR1 (P-gp) (Homo sapiens (Human), UniProt P08183); assay: in vitro; settings: pig, LLC-PK1
Protocol: Both LLC-PK1 and MDR1 transfected LLC-PK1 cells were cultured and plated according to manufacturer's recommendations with the exception that the passage media contained only 2% fetal bovine serum so as to extend passage time out to seven days.
Both positive and negative controls were used to assess functionality of P-gp or BCRP efflux in the assays. Stock solutions for assay controls and the test article were prepared in DMSO for final test concentrations of 10 μM and 1 μM, respectively. Final organic concentration in the assay was 1%. All dosing solutions contained 10 μM lucifer yellow to monitor LLC PK1 or MDCKII cell monolayer integrity.
For the apical to basolateral determination (A to B), 75 μL of the test article in transport buffer were added to the apical side of the individual transwells and 250 μL of basolateral media, without compound or lucifer yellow, were added to each well. For the basolateral to apical determination (B to A), 250 μL of test article in transport buffer were added to each well and 75 μL transport buffer, without compound or lucifer yellow, were added to each transwell. All tests were performed in triplicate, and each compound was tested for both apical to basolateral and basolateral to apical transport. The plates were incubated for 2 hours on a Lab-Line Instruments Titer Orbital Shaker (VWR, West Chester, PA) at 50 rpm and 37° C. with 5% CO2. All culture plates were removed from the incubator, 50 μL of media were removed from the apical and basolateral portion of each well, and added to 150 μL of 1 μM labetalol in 2:1 acetonitrile (ACN): H2O, v/v.
The plates were read using a Molecular Devices (Sunnyvale, CA) Gemini Fluorometer to evaluate the lucifer yellow concentrations at excitation/emission wavelengths of 425/535 nm. These values were accepted when found to be below 2% for apical to basolateral and 5% basolateral to apical flux across the MDR1-transfected LLC-PK1 or BCRP-transfected MDCKII cell monolayers. The plates were sealed, and the contents of each well analyzed by LC MS/MS. The compound concentrations were determined from the ratio of the peak areas of the compound to the internal standard (labetalol) in comparison to the dosing solution.
The LC-MS/MS system was comprised of an HTS-PAL autosampler (Leap Technologies, Carrboro, NC), an HP1200 HPLC (Agilent, Palo Alto, CA), and a MDS Sciex 4000 Q Trap system (Applied Biosystems, Foster City, CA). […] The total run time, including re-equilibration, for a single injection was 1.2 minutes. Mass spectrometric detection of the analytes was accomplished using the ion spray positive mode. Analyte responses were measured by multiple reaction monitoring (MRM) of transitions unique to each compound (the protonated precursor ion and selected product ions for each test article and m/z 329 to m/z 162 for labetalol, the internal standard).
An efflux ratio is calculated from the mean apical to basolateral (A-B) Papp data and basolateral to apical (B-A) Papp data: Efflux ratio=Papp(B−A)/Papp(A−B)

[1] = target: ErbB2 with Exon 20 YVMA insertion (HER2-YVMA) (Homo sapiens (Human), UniProt P04626, INS775YVMA); assay: Cellular Phosphorylation Assay, Assay 4 (constitutive ErbB2 phosphorylation, NIH 3T3 cells); assay type: cell-based; settings: ErbB2 YVMA phosphorylation
EGFR wild type (EGFR WT) = EGFR wild type (EGFR WT) (Homo sapiens (Human), UniProt P00533); assay: Cellular Phosphorylation Assay, Assay 5 (EGF-stimulated EGFR phosphorylation, NIH 3T3 cells); assay type: cell-based; settings: EGF-stimulated EGFR WT phosphorylation
ErbB2 WT = ErbB2 WT (Homo sapiens (Human), UniProt P04626); assay: ErbB Enzyme Assay (HTRF KinEASE-TK), Assay 2; assay type: biochemical; settings: ErbB2 WT enzyme
BCRP = BCRP (Homo sapiens (Human), UniProt Q9UNQ0); assay: BCRP MDCKII efflux assay (Assay 7); assay type: in vitro ADME; settings: dog; efflux ratio Papp(B-A)/Papp(A-B), BCRP MDCKII cells; read-out: Assay 7 Pe Ratio
Protocol: Assay conditions included with and without the BCRP-specific inhibitor, KO143, at a concentration of 0.3 μM to ascertain the contribution of BCRP to the efflux value of the test compound.
Final organic concentration in the assay was 1%.

Chain of EGFR (P00533 25-1210): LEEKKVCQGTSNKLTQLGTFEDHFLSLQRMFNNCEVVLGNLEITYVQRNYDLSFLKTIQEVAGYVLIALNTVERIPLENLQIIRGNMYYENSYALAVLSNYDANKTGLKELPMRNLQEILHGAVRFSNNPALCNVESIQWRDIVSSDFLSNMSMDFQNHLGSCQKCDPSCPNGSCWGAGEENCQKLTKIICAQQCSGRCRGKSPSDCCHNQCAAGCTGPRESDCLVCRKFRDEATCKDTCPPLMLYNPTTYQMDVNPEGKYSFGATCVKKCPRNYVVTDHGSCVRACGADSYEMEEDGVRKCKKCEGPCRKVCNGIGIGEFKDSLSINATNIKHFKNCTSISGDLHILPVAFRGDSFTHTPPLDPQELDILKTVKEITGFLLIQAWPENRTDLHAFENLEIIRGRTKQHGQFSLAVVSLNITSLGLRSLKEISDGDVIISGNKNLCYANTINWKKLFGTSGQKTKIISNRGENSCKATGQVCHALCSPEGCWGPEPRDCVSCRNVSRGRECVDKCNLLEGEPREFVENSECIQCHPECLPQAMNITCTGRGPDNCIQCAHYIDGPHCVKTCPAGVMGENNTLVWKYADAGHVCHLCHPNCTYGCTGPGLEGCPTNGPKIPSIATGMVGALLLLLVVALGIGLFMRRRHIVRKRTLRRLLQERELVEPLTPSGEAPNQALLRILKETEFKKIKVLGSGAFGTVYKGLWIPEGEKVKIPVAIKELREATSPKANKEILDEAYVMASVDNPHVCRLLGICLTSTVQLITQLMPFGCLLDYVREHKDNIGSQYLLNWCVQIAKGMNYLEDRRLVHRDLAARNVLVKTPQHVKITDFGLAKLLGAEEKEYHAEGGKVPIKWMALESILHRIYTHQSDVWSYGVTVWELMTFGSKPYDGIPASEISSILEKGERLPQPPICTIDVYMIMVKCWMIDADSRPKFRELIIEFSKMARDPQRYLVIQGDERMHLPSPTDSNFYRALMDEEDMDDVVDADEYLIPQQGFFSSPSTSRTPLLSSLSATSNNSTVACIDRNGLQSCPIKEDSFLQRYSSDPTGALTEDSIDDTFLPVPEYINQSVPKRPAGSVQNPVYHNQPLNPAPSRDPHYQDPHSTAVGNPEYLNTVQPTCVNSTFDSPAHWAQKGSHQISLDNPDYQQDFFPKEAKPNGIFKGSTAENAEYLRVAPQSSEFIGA
Chain of EGFR wild type (EGFR WT) (P00533 25-1210): as above
Chain of ErbB2 WT (P04626 23-1255): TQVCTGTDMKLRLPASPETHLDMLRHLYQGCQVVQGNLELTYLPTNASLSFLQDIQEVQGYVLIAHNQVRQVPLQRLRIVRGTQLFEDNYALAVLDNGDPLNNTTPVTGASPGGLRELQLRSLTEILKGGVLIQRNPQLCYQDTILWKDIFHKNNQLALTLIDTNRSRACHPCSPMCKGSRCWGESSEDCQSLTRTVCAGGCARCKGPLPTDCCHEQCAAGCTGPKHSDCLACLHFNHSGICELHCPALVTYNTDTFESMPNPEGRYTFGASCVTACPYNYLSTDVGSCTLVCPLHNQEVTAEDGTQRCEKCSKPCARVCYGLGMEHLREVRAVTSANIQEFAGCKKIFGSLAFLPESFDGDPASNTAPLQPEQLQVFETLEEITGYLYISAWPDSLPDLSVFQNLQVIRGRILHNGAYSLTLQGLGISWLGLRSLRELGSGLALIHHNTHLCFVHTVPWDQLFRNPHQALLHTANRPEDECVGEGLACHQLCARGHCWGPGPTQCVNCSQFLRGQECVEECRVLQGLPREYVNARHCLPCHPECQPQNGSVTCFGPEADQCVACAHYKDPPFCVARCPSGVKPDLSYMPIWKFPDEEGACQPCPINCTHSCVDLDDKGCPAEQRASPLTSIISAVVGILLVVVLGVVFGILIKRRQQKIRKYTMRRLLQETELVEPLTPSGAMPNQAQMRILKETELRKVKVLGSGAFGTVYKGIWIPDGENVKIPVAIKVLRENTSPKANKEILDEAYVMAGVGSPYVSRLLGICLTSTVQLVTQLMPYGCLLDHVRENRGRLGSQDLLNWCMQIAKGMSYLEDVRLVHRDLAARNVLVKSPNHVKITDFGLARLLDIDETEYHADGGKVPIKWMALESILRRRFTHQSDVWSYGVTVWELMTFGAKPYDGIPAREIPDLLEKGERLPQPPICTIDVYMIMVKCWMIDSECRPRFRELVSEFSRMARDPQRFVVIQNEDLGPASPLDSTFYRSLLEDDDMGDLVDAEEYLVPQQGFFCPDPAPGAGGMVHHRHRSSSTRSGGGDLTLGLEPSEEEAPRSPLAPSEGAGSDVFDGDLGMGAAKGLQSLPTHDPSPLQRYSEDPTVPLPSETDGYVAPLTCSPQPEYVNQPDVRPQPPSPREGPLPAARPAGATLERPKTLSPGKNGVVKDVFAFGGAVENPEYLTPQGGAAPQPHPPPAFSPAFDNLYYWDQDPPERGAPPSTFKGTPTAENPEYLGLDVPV
Chain of ErbB2 with Exon 20 YVMA insertion (HER2-YVMA) (P04626 other isoform, or with tags, fused parts or gaps ins YVMA behind 775): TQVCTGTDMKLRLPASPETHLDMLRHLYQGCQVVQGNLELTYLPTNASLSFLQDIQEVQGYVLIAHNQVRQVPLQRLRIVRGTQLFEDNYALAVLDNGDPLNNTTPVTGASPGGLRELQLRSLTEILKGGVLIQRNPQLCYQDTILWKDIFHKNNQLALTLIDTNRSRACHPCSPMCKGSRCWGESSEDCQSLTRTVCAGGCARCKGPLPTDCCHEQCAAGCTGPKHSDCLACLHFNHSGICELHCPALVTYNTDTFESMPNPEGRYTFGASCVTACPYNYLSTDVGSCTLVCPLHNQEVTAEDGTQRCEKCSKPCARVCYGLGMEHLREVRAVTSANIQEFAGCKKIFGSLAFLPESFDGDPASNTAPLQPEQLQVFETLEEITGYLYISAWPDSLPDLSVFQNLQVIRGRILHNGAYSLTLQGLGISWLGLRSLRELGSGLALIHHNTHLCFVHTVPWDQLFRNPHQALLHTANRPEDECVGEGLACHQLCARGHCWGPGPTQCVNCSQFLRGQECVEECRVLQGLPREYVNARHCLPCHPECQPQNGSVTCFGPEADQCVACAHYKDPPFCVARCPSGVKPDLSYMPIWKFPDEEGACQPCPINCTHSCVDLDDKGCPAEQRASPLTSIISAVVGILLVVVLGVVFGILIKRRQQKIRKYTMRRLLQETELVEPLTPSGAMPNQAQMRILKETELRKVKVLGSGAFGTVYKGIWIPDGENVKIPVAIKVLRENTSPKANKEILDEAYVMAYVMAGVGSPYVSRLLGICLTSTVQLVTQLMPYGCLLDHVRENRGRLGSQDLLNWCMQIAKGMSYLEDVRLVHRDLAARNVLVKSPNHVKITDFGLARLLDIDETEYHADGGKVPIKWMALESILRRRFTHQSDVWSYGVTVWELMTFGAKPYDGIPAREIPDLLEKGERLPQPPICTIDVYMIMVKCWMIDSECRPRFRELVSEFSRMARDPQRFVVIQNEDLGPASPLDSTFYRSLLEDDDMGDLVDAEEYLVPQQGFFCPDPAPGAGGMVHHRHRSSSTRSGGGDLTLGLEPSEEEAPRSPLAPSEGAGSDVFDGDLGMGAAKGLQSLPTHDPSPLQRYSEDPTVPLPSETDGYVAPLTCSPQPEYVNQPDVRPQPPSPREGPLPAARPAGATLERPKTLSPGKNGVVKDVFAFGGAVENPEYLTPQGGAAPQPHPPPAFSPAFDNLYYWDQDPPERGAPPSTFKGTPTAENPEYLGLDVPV

Structure (SMILES) | IC50 (EGFR) [nM] | efflux ratio at 2 h, 1 µM (MDR1 (P-gp)) | IC50 [1] [nM] | IC50 (EGFR wild type (EGFR WT)) [nM] | IC50 (ErbB2 WT) [nM] | efflux ratio at 2 h, 1 µM (BCRP)
C=CC(=O)N1CCC(Oc2ccc3ncnc(Nc4ccc(Oc5ccc6cn(C)nc6c5)c(Cl)c4F)c3n2)CC1 [Example 9, 1-(4-((4-((3-chloro-2-fluoro-4-((2-methyl-2H-indazol-6-yl)oxy)phenyl)amino)pyrido[3,2-d]pyrimidin-6-yl)oxy)piperidin-1-yl)prop-2-en-1-one] | ≥ 10000 | 1.7 | 66 | 840 | 977 | 2.4
C=CC(=O)N1CCC(Oc2ccc3ncnc(Nc4ccc(Oc5ccn6ncnc6c5)c(Cl)c4F)c3n2)CC1 [Example 13, 1-(4-((4-((4-([1,2,4]triazolo[1,5-a]pyridin-7-yloxy)-3-chloro-2-fluorophenyl)amino)pyrido[3,2-d]pyrimidin-6-yl)oxy)piperidin-1-yl)prop-2-en-1-one] | 220 | 1.2 | 4 | 104 | 8.4 | 1.4
C=CC(=O)N1C2CC1CN(c1ccc3ncnc(Nc4ccc(Oc5ccn6ncnc6c5)c(Cl)c4F)c3n1)C2 [Example 25, 1-(3-(4-((4-([1,2,4]triazolo[1,5-a]pyridin-7-yloxy)-3-chloro-2-fluorophenyl)amino)pyrido[3,2-d]pyrimidin-6-yl)-3,6-diazabicyclo[3.1.1]heptan-6-yl)prop-2-en-1-one] | 558 | 2.2 | 12.1 | 324 | 50.1 | 6.8
C=CC(=O)N1CCC(Sc2ccc3ncnc(Nc4ccc(Oc5ccc6c(c5)ncn6C)c(C)c4F)c3n2)CC1 [Example 28, 1-(4-((4-((2-fluoro-3-methyl-4-((1-methyl-1H-benzo[d]imidazol-5-yl)oxy)phenyl)amino)pyrido[3,2-d]pyrimidin-6-yl)thio)piperidin-1-yl)prop-2-en-1-one] | ≥ 10000 | 2 | 26.4 | ≥ 5000 | 275 | 5.2
C=CC(=O)N1CCN(c2ccc3ncnc(Nc4ccc(Oc5ccn6ncnc6c5)c(Cl)c4F)c3n2)CC1 [Example 30, 1-(4-(4-((4-([1,2,4]triazolo[1,5-a]pyridin-7-yloxy)-3-chloro-2-fluorophenyl)amino)pyrido[3,2-d]pyrimidin-6-yl)piperazin-1-yl)prop-2-en-1-one] | 200 | 1.5 | 2.3 | 87.6 | 6 | 5
C=CC(=O)N1CCN(c2ccc3ncnc(Nc4ccc(Oc5ccn6ncnc6c5)c(C)c4F)c3n2)CC1(C)C [Example 31, 1-(4-(4-((4-([1,2,4]triazolo[1,5-a]pyridin-7-yloxy)-2-fluoro-3-methylphenyl)amino)pyrido[3,2-d]pyrimidin-6-yl)-2,2-dimethylpiperazin-1-yl)prop-2-en-1-one] | 6540 | 1.3 | 22.7 | 928 | 14.3 | 1.8
C=CC(=O)N1CCC(Oc2nc3c(Nc4ccc(Oc5ccn6ncnc6c5)c(Cl)c4F)ncnc3cc2OC)CC1 [Example 39, 1-(4-((4-((4-([1,2,4]triazolo[1,5-a]pyridin-7-yloxy)-3-chloro-2-fluorophenyl)amino)-7-methoxypyrido[3,2-d]pyrimidin-6-yl)oxy)piperidin-1-yl)prop-2-en-1-one] | 49.3 | 2.3 | 5.3 | 46.8 | 5.5 | 2.6
C=CC(=O)N1CCC(c2nc3c(Nc4ccc(Oc5ccc6c(c5)ncn6C)c(C)c4)ncnc3cc2OC)CC1 [Example 42, 1-(4-(7-methoxy-4-((3-methyl-4-((1-methyl-1H-benzo[d]imidazol-5-yl)oxy)phenyl)amino)pyrido[3,2-d]pyrimidin-6-yl)piperidin-1-yl)prop-2-en-1-one] | 778 | 2.5 | 17 | ≥ 5000 | 14.7 | 2.9
C=CC(=O)N1C2CC1CN(c1ccc3ncnc(Nc4cc(C)c(Oc5ccn6ncnc6c5)cc4F)c3n1)C2 [Example 43, 1-(3-(4-((4-([1,2,4]triazolo[1,5-a]pyridin-7-yloxy)-2-fluoro-5-methylphenyl)amino)pyrido[3,2-d]pyrimidin-6-yl)-3,6-diazabicyclo[3.1.1]heptan-6-yl)prop-2-en-1-one] | ≥ 10000 | 3 | 21.3 | ≥ 5000 | 120 | 4.1
C=CC(=O)N1CC2CC(C1)N2c1ccc2ncnc(Nc3cc(Cl)c(Oc4ccn5ncnc5c4)cc3F)c2n1 [Example 45, 1-(6-(4-((4-([1,2,4]triazolo[1,5-a]pyridin-7-yloxy)-5-chloro-2-fluorophenyl)amino)pyrido[3,2-d]pyrimidin-6-yl)-3,6-diazabicyclo[3.1.1]heptan-3-yl)prop-2-en-1-one] | 8300 | 2.5 | 17.1 | 2760 | 222 | 5.6
C=CC(=O)N1CC2CC(C1)N2c1ccc2ncnc(Nc3ccc(Oc4ccn5ncnc5c4)c(C)c3F)c2n1 [Example 46, 1-(6-(4-((4-([1,2,4]triazolo[1,5-a]pyridin-7-yloxy)-2-fluoro-3-methylphenyl)amino)pyrido[3,2-d]pyrimidin-6-yl)-3,6-diazabicyclo[3.1.1]heptan-3-yl)prop-2-en-1-one] | 1270 | 2.5 | 18.2 | 2100 | 119 | 2.5
C=CC(=O)N1CC[C@H]2CN(c3ccc4ncnc(Nc5ccc(Oc6ccn7ncnc7c6)c(Cl)c5F)c4n3)C[C@H]21 [Example 49, 1-((3aS,6aS)-5-(4-((4-([1,2,4]triazolo[1,5-a]pyridin-7-yloxy)-3-chloro-2-fluorophenyl)amino)pyrido[3,2-d]pyrimidin-6-yl)hexahydropyrrolo[3,4-b]pyrrol-1(2H)-yl)prop-2-en-1-one] | 1170 | 1.5 | 10.5 | 2810 | 18.6 | 3
C=CC(=O)N1CCC(Sc2ccc3ncnc(Nc4cc(C)c(Oc5ccc6c(c5)ncn6C)cc4F)c3n2)CC1 [Example 64, 1-(4-((4-((2-fluoro-5-methyl-4-((1-methyl-1H-benzo[d]imidazol-5-yl)oxy)phenyl)amino)pyrido[3,2-d]pyrimidin-6-yl)thio)piperidin-1-yl)prop-2-en-1-one] | ≥ 10000 | 2.4 | 32.9 | ≥ 5000 | 37.4 | 4.2
C=CC(=O)N1CC[C@@H]2C[C@H]1CN2c1ccc2ncnc(Nc3ccc(Oc4ccn5ncnc5c4)c(C)c3F)c2n1 [Example 65, 1-((1S,5R)-6-(4-((4-([1,2,4]triazolo[1,5-a]pyridin-7-yloxy)-2-fluoro-3-methylphenyl)amino)pyrido[3,2-d]pyrimidin-6-yl)-2,6-diazabicyclo[3.2.1]octan-2-yl)prop-2-en-1-one] | 170 | 1.4 | 4.2 | 146 | 17.4 | 4
C=CC(=O)N1CCCN(c2ccc3ncnc(Nc4ccc(Oc5ccc6c(c5)ncn6C)c(C)c4F)c3n2)CC1(C)C [Example 69, 1-(4-(4-((2-fluoro-3-methyl-4-((1-methyl-1H-benzo[d]imidazol-5-yl)oxy)phenyl)amino)pyrido[3,2-d]pyrimidin-6-yl)-2,2-dimethyl-1,4-diazepan-1-yl)prop-2-en-1-one] | ≥ 10000 | 3 | 19.9 | ≥ 5000 | 141 | 2.4
C=CC(=O)N1CCN(c2ccc3ncnc(Nc4cc(C)c(Oc5ccn6ncnc6c5)cc4F)c3n2)CC1(C)C [Example 73, 1-(4-(4-((4-([1,2,4]triazolo[1,5-a]pyridin-7-yloxy)-2-fluoro-5-methylphenyl)amino)pyrido[3,2-d]pyrimidin-6-yl)-2,2-dimethylpiperazin-1-yl)prop-2-en-1-one] | 5080 | 1.1 | 28.9 | 2420 | 36.4 | 4.3
C=CC(=O)N1CCN(c2ccc3ncnc(Nc4cc(C)c(Oc5ccc6c(c5)ncn6C)cc4F)c3n2)CC1(C)C [Example 82, 1-(4-(4-((2-fluoro-5-methyl-4-((1-methyl-1H-benzo[d]imidazol-5-yl)oxy)phenyl)amino)pyrido[3,2-d]pyrimidin-6-yl)-2,2-dimethylpiperazin-1-yl)prop-2-en-1-one] | 7320 | 2 | 12.6 | 4400 | 58.2 | 3.9
